System: MIA PaCa-2
Test: SRB assay, cancer cell growth, pancreatic cancer cell line MIA PaCa-2
Assay type: cell-based
Conditions: MIA PaCa-2
Procedure: As a comparison, omeprazole (KN510) and trimetazidine (KN713), a 3-ketoacyl CoA thiolase inhibitor, were co-treated. […] After cell inoculation, 96-well cell culture plates were incubated for 24 hours before the addition of experimental drugs. […] The cells were then incubated in a CO2 incubator for 48 hours, after which the assay was terminated by the addition of cold TCA. Cells were fixed in situ by gently adding 50 μl of cold 50% (w/v) TCA (final concentration: 10% TCA) and incubated at 4° C. for 60 min. The supernatant was discarded, and the plate was washed five times with distilled water and air dried. Sulforhodamine B (SRB) solution (100 μl) of 0.4% (w/v) in 1% acetic acid was added to each well, and the plate was left at room temperature for 10 min. After staining, unbound dye was removed by washing five times with 1% acetic acid, and the plate was air-dried. The bound dye was then solubilized with 10 mM trizma base, and the absorbance was recorded at 515 nm using an automated plate reader. […] The predicted synergistic activity of a combination of the present invention can be calculated using the Colby Equation in Equation 1 (S.R. Colby, Weeds, 1967, pp. 15, 20-22): α and β are the measured anti-cancer activity of each compound alone, and E is the predicted anti-cancer activity of a mixture of α and β as a prediction. In the present invention, the actual measure of anti-cancer activity of the combination treatment was the inhibition rate of cancer cell growth (%), and the predicted value (E) of the combination treatment was measured by substituting it into the above Colby Equation.

In the case of `COc1ccc(CN2CCNCC2)c(OC)c1OC` [KN713, trimetazidine], the GI50 (Homo sapiens, 48 hours, read-out: GI50 (Half maximal growth inhibition concentration)) is reported as 1.81 mM, the “Cancer cell growth rate Average (%)” value (Conc. 10^−2M, Table 1) is reported as −29.68% and the “Cancer cell growth rate Average (%)” value (Conc. 10^−3M, Table 1) is reported as 95.03%. The “Cancer cell growth rate Average (%)” value (Conc. 10^−4M, Table 1) was 95.50%, the “Cancer cell growth rate Average (%)” value (Conc. 10^−5M, Table 1) was 94.52% and the “Cancer cell growth rate Average (%)” value (Conc. 10^−6M, Table 1) was 97.75%. The “Cancer cell growth rate Average (%)” value (Conc. 10^−7M, Table 1) was 97.85% and the “Cancer cell growth rate Average (%)” value (comparative example, Table 3, KN713 2.5 mM) was 88.90%.
